# Assay results reported in ChEMBL document CHEMBL1201862, “PubChem BioAssay data set” (2004).
# The source made the active and inactive calls.
# Columns and labels:
# A-375 = test: MITF: Counter assay: A375 proliferation Measured in Cell-Based System Using Plate Reader - 2084-03_Inhibitor_Dose_DryPowder_Activity. [Related pubchem assays (depositor defined):AID488944]; type: functional; settings: Homo sapiens
# [1] = molecular target: T1, Microphthalmia-associated transcription factor (Homo sapiens, UniProt O75030); test: TRPM1 promoter luciferase signal decrease, dose response, MITF inhibitor project, cell-based, SK-MEL-5, cherry-picked, set 3 (AID 493073); type: functional
# T1 sequence (O75030 whole entry): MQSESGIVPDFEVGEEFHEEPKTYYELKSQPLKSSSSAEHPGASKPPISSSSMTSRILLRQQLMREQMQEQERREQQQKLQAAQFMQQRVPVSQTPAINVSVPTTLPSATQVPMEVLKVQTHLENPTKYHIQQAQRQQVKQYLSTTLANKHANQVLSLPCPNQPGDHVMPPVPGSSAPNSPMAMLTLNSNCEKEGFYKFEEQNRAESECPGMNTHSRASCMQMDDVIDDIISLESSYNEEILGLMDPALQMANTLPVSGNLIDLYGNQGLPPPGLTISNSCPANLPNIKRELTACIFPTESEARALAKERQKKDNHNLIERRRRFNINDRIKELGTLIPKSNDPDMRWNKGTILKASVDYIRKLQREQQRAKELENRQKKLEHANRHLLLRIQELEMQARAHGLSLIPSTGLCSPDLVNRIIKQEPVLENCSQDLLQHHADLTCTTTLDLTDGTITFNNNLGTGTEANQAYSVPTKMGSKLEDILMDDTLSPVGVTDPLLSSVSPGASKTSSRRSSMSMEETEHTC
# [2] = molecular target: T2, Low molecular weight phosphotyrosine protein phosphatase (Homo sapiens, UniProt P24666); type: functional; settings: read-out: IC50_Mean
# T2 sequence (P24666 whole entry): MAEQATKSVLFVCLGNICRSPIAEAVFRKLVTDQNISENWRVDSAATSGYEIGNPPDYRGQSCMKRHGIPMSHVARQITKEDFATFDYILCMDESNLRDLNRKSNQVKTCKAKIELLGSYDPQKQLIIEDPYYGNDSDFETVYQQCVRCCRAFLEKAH
# NS3 = NS3 (Hepatitis C virus, UniProt A3EZJ3); test: PubChem AID 2173; design: species or system Hepacivirus hominis
# [3] = molecular target: NAD-dependent protein deacylase sirtuin-5, mitochondrial (Homo sapiens, UniProt Q9NXA8); test: SIRT5 desuccinylase inhibitors, dose response, biochemical, fluorescence imaging, cherry-pick, set 5 (AID 720591);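 further: desuccinylation of succinyl peptide AMC substrate read as fluorescence after trypsin release; potency of inhibitors that lower fluorescence and may act on trypsin instead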
# Vero = Vero cell cytotoxicity, cytotoxicity control for flavivirus capping enzyme inhibitors (AID 588742); type: functional; settings: Chlorocebus sabaeus
# [4] = molecular target: T2, Low molecular weight phosphotyrosine protein phosphatase; type: functional; settings: read-out: IC50_Mean; remark: listed apart in the source
# [5] = Late-stage probe development counterscreen for inhibitors of the Hepatitis C Virus non-structural protein 3 helicase (NS3): luminescence-based cell-based dose response assay to determine whether compounds that inhibit replication of HCV RNA replicon are cytotoxic. [Related pubchem assays (depositor defined):AID1800, AID1830, AID1845, AID1943, AID1945, AID2172, AID2173, AID2474, AID2476]; type: functional
# Genome polyprotein = Genome polyprotein (dengue virus type 2, UniProt P29990); test: Dengue-2 NS5 methyltransferase inhibitors, primary screen, biochemical, confirmation dose response (AID 588689); type: functional
# [6] = molecular target: T3, Probable nicotinate-nucleotide adenylyltransferase (Staphylococcus aureus (strain N315), UniProt P65502); type: functional, Staphylococcus aureus subsp. aureus N315;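 on IC50 Mean: confirmatory dose-response retesting of NadD inhibitor hits first found in an ultra-high-throughput screen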
# [7] = molecular target: T3, Probable nicotinate-nucleotide adenylyltransferase; type: functional, Staphylococcus aureus subsp. aureus N315; settings: read-out: IC50_Mean
# Candida albicans = test: growth inhibition of azole-resistant C. albicans, dose response, CaCi-8 strain, Alamar Blue, dry powder, set 2 (AID 488909); type: functional, organism-based
# [8] = THP-1 cell cytotoxicity, dose response, cytotoxicity control for Vif-APOBEC3G degradation inhibitor project, THP-1 cells (AID 1117359); type: functional; settings: Human immunodeficiency virus 1, THP-1
# [9] = inhibitors of HIV Env-driven cell fusion, dose response, cherry-pick (AID 652057); type: functional, cell-based
# Salmon testes DNA = test: DNA intercalators displacing acridine orange, dose response, artefact control for KSHV LANA DNA-binding inhibitor project, biochemical, fluorescence polarization, cherry-picked samples, set 2 (AID 504727); design: species or system Salmonidae
# [10] = system: Streptococcus sp. 'group A'; test: growth inhibition of control SK(-) GAS strain, dose response, counter-screen for streptokinase expression inhibitor project, luminescence, kanamycin, BacTiterGlo, confirmation (AID 1900); type: functional, organism-based
# Escherichia coli [11] = test: microbe, parasite or virus in culture
# [12] = molecular target: Induced myeloid leukemia cell differentiation protein Mcl-1 (Homo sapiens, UniProt Q07820); test: MCL1-BIM BH3 interaction inhibitors, dose response, biochemical, fluorescence polarization, BIM-BH3 peptide, 1536-well (AID 2217)
# ORF 73 = molecular target: T4, ORF 73 (Human herpesvirus 8, UniProt O40947); test: inhibitors of C-LANA binding to LBS DNA, dose response, biochemical, fluorescence polarization, cherry-picked samples (AID 504725); design: species or system Human gammaherpesvirus 8;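 further: fluorescence polarization of a labeled DNA duplex reporting LANA DNA binding; potency is for inhibitors that block LANA binding to the DNA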
# T4 sequence (O40947 whole entry): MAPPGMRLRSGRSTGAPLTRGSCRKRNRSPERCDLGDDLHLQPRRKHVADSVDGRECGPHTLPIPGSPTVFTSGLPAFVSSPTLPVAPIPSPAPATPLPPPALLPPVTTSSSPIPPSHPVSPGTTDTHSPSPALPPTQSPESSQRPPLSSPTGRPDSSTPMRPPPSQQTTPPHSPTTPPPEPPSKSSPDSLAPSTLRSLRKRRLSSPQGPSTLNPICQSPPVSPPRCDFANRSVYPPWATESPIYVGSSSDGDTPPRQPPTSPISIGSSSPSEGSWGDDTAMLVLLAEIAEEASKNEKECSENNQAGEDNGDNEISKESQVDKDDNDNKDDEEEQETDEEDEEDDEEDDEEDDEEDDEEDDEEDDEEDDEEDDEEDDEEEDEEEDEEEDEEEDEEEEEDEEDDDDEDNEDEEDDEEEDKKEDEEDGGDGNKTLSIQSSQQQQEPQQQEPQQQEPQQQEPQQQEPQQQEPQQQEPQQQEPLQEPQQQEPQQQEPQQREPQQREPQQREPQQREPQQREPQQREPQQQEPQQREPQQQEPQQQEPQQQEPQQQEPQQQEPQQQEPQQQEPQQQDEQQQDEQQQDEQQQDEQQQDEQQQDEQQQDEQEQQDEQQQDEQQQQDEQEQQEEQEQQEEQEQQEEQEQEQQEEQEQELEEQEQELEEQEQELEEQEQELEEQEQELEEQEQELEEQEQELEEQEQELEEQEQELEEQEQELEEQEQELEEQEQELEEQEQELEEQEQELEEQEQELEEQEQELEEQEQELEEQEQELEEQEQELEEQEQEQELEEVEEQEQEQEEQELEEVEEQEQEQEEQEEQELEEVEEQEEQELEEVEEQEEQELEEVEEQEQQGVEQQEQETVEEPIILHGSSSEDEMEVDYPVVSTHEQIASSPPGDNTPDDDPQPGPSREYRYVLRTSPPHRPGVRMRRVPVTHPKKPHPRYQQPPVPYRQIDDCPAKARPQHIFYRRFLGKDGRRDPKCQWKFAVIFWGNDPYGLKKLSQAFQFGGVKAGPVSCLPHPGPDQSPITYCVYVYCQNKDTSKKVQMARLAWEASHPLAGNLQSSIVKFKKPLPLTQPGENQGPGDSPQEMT
# [13] = molecular target: T5, Rac GTPase-activating protein 1 (Homo sapiens, UniProt Q9H0H5); test: MgcRacGAP GTPase-activating activity inhibitors, confirmation, biochemical, ADP Hunter fluorescence, primary and confirmatory (AID 624330); type: functional
# T5 sequence (Q9H0H5 whole entry): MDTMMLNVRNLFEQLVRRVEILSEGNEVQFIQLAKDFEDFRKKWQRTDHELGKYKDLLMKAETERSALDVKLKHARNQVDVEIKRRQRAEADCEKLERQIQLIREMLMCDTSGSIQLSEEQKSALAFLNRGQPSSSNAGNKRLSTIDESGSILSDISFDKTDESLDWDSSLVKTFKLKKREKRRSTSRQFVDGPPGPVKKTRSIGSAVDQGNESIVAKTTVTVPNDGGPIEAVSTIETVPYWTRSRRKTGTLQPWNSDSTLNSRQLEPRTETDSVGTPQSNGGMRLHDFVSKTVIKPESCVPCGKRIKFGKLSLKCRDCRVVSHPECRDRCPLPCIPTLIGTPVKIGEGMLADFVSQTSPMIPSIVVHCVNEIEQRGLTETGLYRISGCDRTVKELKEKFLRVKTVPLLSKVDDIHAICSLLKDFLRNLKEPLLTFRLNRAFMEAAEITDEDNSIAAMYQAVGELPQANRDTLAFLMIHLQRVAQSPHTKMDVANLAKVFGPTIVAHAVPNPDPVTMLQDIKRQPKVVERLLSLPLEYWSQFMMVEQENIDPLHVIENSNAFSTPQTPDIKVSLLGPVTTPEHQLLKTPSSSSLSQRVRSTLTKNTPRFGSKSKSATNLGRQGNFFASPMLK
# [14] = inhibitors of clade B AD8 Env fusion, dose response, cell-based, cherry-pick (AID 652062); type: functional;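 further: luciferase signal from cell-cell fusion driven by HIV-1 clade B AD8 Env; potency is for inhibitors of fusion seen as a drop in luminescence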
# Escherichia coli [15] = test: microbe, parasite or virus in culture; remark: listed apart in the source
# Streptococcus = test: Group A Streptococcus viability loss, dose response, counter-screen for streptokinase expression inhibitor project, luminescence, BacTiterGlo (AID 1915); type: functional, organism-based;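 further: potency for reduction of bacterial viability or growth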
# [16] = off-target signal loss in HeLa-CEM21 co-culture – HeLa F-luc CTL cells, cherry-picked, counter-screen for HIV-1 Env fusion inhibitor project, dose response (AID 652040); type: functional, cell-based;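 further: potency for signal decrease marking cytotoxic or nonspecific inhibition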
# [17] = ZM109 Env clade C HIV-1 fusion inhibitors, dose response, HeLa effector, CEM target cells, luciferase, cherry-pick (AID 652058); type: functional, cell-based
# Bcl-2-like protein 1 = Bcl-2-like protein 1 (Homo sapiens, UniProt Q07817); test: BCL-XL inhibitors, dose response, selectivity assay for MCL1 inhibitor project, biochemical, fluorescence polarization, 1536-well (AID 2218)
# Bcl-2-like protein 1, sequence (Q07817 whole entry): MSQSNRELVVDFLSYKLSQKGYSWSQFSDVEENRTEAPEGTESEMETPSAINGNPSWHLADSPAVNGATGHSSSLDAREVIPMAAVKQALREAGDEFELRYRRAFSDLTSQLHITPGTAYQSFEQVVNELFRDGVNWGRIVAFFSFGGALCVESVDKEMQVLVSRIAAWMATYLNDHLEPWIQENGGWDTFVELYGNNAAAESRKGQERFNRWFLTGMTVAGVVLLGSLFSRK
# T3 sequence (P65502 whole entry): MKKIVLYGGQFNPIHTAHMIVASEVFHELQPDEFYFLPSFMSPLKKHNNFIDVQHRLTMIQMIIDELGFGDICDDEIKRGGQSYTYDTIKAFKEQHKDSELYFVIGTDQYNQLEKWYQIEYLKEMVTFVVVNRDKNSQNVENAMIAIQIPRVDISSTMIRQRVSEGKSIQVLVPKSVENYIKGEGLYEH
# NS3, sequence (A3EZJ3 whole entry): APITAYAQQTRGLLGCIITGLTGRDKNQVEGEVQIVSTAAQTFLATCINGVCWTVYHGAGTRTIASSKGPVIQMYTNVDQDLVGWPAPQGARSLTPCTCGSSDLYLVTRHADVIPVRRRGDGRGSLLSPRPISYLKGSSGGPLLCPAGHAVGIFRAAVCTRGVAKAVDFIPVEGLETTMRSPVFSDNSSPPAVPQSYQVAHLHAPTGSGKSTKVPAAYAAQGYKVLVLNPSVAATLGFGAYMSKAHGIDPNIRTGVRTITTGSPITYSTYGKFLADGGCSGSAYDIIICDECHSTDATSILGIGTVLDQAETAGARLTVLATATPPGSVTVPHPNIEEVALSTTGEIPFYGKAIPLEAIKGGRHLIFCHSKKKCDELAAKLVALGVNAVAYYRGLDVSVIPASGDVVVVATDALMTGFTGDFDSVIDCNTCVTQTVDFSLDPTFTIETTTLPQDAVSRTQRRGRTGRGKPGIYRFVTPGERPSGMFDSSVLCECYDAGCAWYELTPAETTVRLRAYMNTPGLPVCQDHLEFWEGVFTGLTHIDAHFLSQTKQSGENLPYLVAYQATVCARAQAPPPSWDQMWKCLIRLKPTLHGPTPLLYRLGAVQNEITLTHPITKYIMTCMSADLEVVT
# NAD-dependent protein deacylase sirtuin-5, mitochondrial, sequence (Q9NXA8 whole entry): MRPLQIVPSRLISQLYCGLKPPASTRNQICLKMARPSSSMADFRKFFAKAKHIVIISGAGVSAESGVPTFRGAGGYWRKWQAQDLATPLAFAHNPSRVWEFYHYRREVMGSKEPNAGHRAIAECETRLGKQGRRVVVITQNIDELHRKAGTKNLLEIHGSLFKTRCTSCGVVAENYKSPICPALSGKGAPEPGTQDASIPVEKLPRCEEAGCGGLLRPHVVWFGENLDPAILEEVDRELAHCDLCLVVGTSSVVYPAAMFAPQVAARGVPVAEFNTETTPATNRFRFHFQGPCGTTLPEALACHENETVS
# Induced myeloid leukemia cell differentiation protein Mcl-1, sequence (Q07820 whole entry): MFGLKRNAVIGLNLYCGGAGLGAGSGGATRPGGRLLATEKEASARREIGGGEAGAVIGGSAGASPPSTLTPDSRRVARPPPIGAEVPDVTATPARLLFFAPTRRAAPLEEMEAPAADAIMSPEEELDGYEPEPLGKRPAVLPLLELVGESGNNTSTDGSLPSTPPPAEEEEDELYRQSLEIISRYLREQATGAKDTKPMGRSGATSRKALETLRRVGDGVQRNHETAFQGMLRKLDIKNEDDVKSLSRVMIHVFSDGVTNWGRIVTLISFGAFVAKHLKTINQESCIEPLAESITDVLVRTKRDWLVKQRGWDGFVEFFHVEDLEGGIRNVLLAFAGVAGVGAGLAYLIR
# Genome polyprotein, sequence (P29990 2492-3391 limits assumed): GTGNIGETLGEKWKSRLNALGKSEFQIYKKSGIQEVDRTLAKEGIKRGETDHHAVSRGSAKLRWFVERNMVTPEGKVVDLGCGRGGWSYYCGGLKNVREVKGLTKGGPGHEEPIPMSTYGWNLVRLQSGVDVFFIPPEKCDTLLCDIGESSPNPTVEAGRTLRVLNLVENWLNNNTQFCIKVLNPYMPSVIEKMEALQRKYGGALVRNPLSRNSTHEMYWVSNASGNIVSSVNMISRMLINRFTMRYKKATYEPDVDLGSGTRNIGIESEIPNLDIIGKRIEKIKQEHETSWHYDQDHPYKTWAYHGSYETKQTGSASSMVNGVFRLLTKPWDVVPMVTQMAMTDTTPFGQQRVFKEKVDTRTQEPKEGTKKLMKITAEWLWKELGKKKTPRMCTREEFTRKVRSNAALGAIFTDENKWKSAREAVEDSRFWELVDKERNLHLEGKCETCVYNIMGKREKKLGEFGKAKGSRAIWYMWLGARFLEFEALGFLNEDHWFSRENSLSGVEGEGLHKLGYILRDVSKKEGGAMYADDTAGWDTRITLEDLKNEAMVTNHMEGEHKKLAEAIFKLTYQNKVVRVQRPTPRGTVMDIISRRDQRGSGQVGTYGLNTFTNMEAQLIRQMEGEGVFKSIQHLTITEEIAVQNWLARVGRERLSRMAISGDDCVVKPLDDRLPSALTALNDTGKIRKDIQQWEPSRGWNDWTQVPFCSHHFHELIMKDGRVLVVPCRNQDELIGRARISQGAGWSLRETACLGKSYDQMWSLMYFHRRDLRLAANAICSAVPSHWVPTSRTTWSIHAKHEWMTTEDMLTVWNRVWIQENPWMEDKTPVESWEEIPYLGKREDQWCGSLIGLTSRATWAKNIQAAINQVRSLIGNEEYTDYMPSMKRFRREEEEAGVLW
smiles,measurement,setting,value
CC(C)(C)c1ccc(OCCCNCc2ccccc2)cc1,AC50,A-375,29.7 µM (active)
same,AC50,[1],18.4 µM (active)
Cc1cc(N2C(=O)C(O)=C(C(=O)c3ccc(C)o3)C2c2ccc(OCc3ccccc3)cc2)no1 (configuration not stated),IC50,[2],> 80 µM (inactive)
same,IC50,NS3,1.74 µM (active)
same,AC50,[3],> 30 µM (inactive)
same,CC50,Vero,> 40 µM (active)
same,IC50,[4],2.98 µM (active)
same,CC50,[5],> 100 µM (inactive)
same,IC50,Genome polyprotein,> 100 µM (active)
same,IC50,[6],8.93 µM (active)
same,IC50,[7],28.9 µM (active)
COc1cccc2c(N3CCN(C(=O)c4ccc(Cl)cc4)CC3)cc(C)nc12,AC50,Candida albicans,> 260 µM (inactive)
CN(C)c1ccc(O)c2c1CC1CC3[C@@H](N(C)C)C(O)=C(C(N)=O)C(=O)[C@]3(O)C(O)=C1C2=O (some centres not stated),CC50,[8],> 40 µM (active)
same,IC50,NS3,> 109 µM (not active)
same,AC50,[9],< 0.26 µM (active)
same,AC50,Salmon testes DNA,46.2 µM (active)
same,EC50,[10],0.079 µM (active)
same,AC50,Escherichia coli [11],1.06 µM (active)
same,IC50,[12],9.39 µM (active)
same,AC50,ORF 73,25.6 µM (active)
same,IC50,[13],120 µM (active)
same,AC50,[14],< 0.26 µM (active)
same,AC50,Escherichia coli [15],11.2 µM (active)
same,EC50,Streptococcus,0.173 µM (active)
same,AC50,[16],< 0.26 µM (active)
same,AC50,[17],< 0.26 µM (active)
same,IC50,Bcl-2-like protein 1,> 109 µM (not active)
